Read-outs that look alike come from different tables or passages of the source. Where a SMILES comes first, the peptide text is derived from it. The star is where a group is joined. Cbz = O=C(OCc1ccccc1)*
Tests used:
[1] = Stability of Compound 3 in solution at pH 7; assay type: physicochemical
Description: Oxidative cleavage of the (S)(−)-(4-methoxyphenyl)-ethylamide protecting group in Compound 14 cleanly afforded the β-lactam, Compound 3, in 89% yield.

[2] = biological target: T1, 20S proteasome (Homo sapiens, UniProt P28074); experiment: Inactivation of 20S proteasome, hydrolysis of Suc-Leu-Leu-Val-Tyr-AMC followed by fluorescence; assay type: biochemical; conditions: for kinact/KI: read-out: kobs/[3]
T1 construct: purchased Boston Biochem
Procedure: Determination of the inhibitory activity of Compound 3 against the 20S proteasome (see reference 12) was carried out by a modification of the method reported by Dick et al. See reference 11. […] See reference 12. The progress of proteasome inactivation was determined by addition of Suc-LLVY-AMC to a 2 mL aliquot of the incubation experiment and monitoring the rate of production of free AMC by fluorescence spectrophotometry.
A plot of .ln(fluorescence/time) vs. time provided a linear decay whose slope is kobs for proteasome inactivation (FIG. 2). The rate of proteasome inactivation was proportional to the amount of Compound 3 present in the incubation experiments. The 10 μM and 30 μM time course experiments gave values for kobs/[3] as 7 M-1s-1 and 6.7 M-1s-1 respectively. In order to monitor background inactivation of 20S proteasome (see reference 13), each of these of experiments was run side by side with a control experiment identical in all respects except for the exclusion of Compound 3.
Inactivation of 20S proteasome by Compound 3. To separate 50 mL vials containing 12 mL of pH 7.9 buffer (20 mM hepes, 0.5 mM EDTA) was added 60 μL of a stock solution of 20S proteasome (20 mM Hepes, 0.5 mM EDTA, pH 7.9, 100 μg/mL) and aqueous sodium dodecylsulfate (10% w/v, 30 μL). The initial rate of hydrolysis of Suc-Leu-Leu-Val-TyrAMC was determined by addition of a solution of Suc-Leu-Leu-Val-Tyr-AMC (10 mM in DMSO, 10 μL) to a 2 mL aliquot of each of the above solutions. The initial rate of free AMC production was monitored at 37° C. by fluorescence spectrophotometry as described by Dick et al.* To one of the stock solutions was added a solution of the β-lactam 3 (10 mM in DMSO, 12 μL). Both solutions were incubated side by side at 37° C. Aliquots were removed at time points as assayed as above. The data for both the 10 μM experiment and an identical experiment utilizing 30 μM using a 30 mM stock solution of 3 are tabulated below. * See, McCormack, T.; Baumeister, W.; Grenier, L.; Moomaw, C.; Plamondon, L.; Pramanik, B.; Slaughter, C.; Soucy, F.; Stein, R.; Zuhl, F.; Dick, L., J. Biol. Chem. 1996, 272, 26103-26109.

[3] = test system: PC12 cells; conditions: cited from earlier work
[4] = Part 2, 30 μM of Compound 3, time 0 mm
[5] = Part 2, 30 μM of Compound 3, time 47 mm
[6] = Part 2, 30 μM of Compound 3, time 101 mm
[7] = Part 2, 30 μM of Compound 3, time 177 mm

CC(C)[C@H](O)[C@@]12NC(=O)[C@H](CCCl)[C@@H]1NC2=O [Compound 3]
stability compared with the corresponding β-lactone and Compounds 1 and 2 ([1]; found to date): much more stable
stability at pH 7 ([1]; pH 7, 23° C., 24 h): completely stable
remaining activity at 10 µM ([2]; 10 μM 3, after 9.5 h, read-out: initial proteasome activity remaining): < 10%
% Initial Velocity ([2]; 10 μM Compound 3, time 0 h): 100%
Experiment with 10 μM 3 (units F/s) ([2]; 10 μM Compound 3, time 0 h): 0.59 units F/s
% Initial Velocity ([2]; 10 μM Compound 3, time 1.5 h): 57%
Experiment with 10 μM 3 (units F/s) ([2]; 10 μM Compound 3, time 1.5 h): 0.337 units F/s
% Initial Velocity ([2]; 10 μM Compound 3, time 2.5 h): 45%
Experiment with 10 μM 3 (units F/s) ([2]; 10 μM Compound 3, time 2.5 h): 0.267 units F/s
% Initial Velocity ([2]; 10 μM Compound 3, time 4.5 h): 26%
Experiment with 10 μM 3 (units F/s) ([2]; 10 μM Compound 3, time 4.5 h): 0.156 units F/s
% Initial Velocity ([2]; 10 μM Compound 3, time 6.5 h): 15%
Experiment with 10 μM 3 (units F/s) ([2]; 10 μM Compound 3, time 6.5 h): 0.09 units F/s
% Initial Velocity ([2]; 10 μM Compound 3, time 9.5 h): 7.4%
Experiment with 10 μM 3 (units F/s) ([2]; 10 μM Compound 3, time 9.5 h): 0.044 units F/s
remaining activity at 30 µM ([2]; 30 μM 3, after 3 h, read-out: initial proteasome activity remaining): < 10%
% Initial Velocity [2, 4]: 100%
Experiment with 10 μM 3 (units F/s) [2, 4]: 0.526 units F/s
% Initial Velocity [2, 5]: 44%
Experiment with 10 μM 3 (units F/s) [2, 5]: .233 units F/s
% Initial Velocity [2, 6]: 17%
Experiment with 10 μM 3 (units F/s) [2, 6]: 0.090 units F/s
% Initial Velocity [2, 7]: 7%
Experiment with 10 μM 3 (units F/s) [2, 7]: 0.039 units F/s
kinact/KI ([2]; pH 7.9, 10 μM time course): 7 M⁻¹ s⁻¹
kinact/KI ([2]; pH 7.9, 30 μM time course): 6.7 M⁻¹ s⁻¹
melting point: 205 to 207 °C

CC(C)C[C@@H](C=O)NC(=O)[C@H](CC(C)C)NC(=O)[C@H](CC(C)C)NC(=O)OCc1ccccc1 [benzyloxycarbonyl (Z)-Leu-Leu-leucinal] (Cbz-Leu-Leu-Leu-aldehyde)
optimal concentration for inducing neurite outgrowth [3]: 30 nM

From US7465720B2, “Proteasome inhibiting β-lactam compounds” (President and Fellows of Harvard College, priority 2005, dated 2008)
